Experiments:
Assay in all cases: relative viability (nuclei count vs DMSO), 5 days (fraction); higher = more cells survive
NCI-H2347 = system: NCI-H2347
Procedure, shortened: (§1)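 The day after seeding in 1536-well plates, lung cancer cell lines were treated by pin tool with a single drug, or with a fixed anchor-drug dose together with five library-drug doses (not always all listed) in √10 steps. After 5 days, a combined fix-and-stain solution (final 0.05% Triton X-100, 1% formaldehyde, 1 ug/ml Hoechst) was added. Nuclei counted on 4× images gave relative viability as treated counts over vehicle counts, reported as the median of duplicate plates.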

LCLC-103H = system: LCLC-103H
Procedure, shortened: as §1

NCI-H727 = system: NCI-H727
Procedure, shortened: as §1

NCI-H2170 = system: NCI-H2170
Procedure, shortened: as §1

NCI-H520 = system: NCI-H520
Procedure, shortened: as §1

NCI-H661 = system: NCI-H661
Procedure, shortened: as §1

NCI-H650 = system: NCI-H650
Procedure, shortened: as §1

NCI-H3122 = system: NCI-H3122
Procedure, shortened: as §1

RERF-LC-KJ = system: RERF-LC-KJ
Procedure, shortened: as §1

NCI-H1755 = system: NCI-H1755
Procedure, shortened: as §1

SK-MES-1 = system: SK-MES-1
Procedure, shortened: as §1

NCI-H522 = system: NCI-H522
Procedure, shortened: as §1

PC-14 = system: PC-14
Procedure, shortened: as §1

NCI-H1792 = system: NCI-H1792
Procedure, shortened: as §1

NCI-H1915 = system: NCI-H1915
Procedure, shortened: as §1

NCI-H1651 = system: NCI-H1651
Procedure, shortened: as §1

NCI-H460 = system: NCI-H460
Procedure, shortened: as §1

NCI-H596 = system: NCI-H596
Procedure, shortened: as §1

NCI-H322M = system: NCI-H322M
Procedure, shortened: as §1

LXF-289 = system: LXF-289
Procedure, shortened: as §1

SW 900 = system: SW 900
Procedure, shortened: as §1

NCI-H1355 = system: NCI-H1355
Procedure, shortened: as §1

NCI-H441 = system: NCI-H441
Procedure, shortened: as §1

For Clc1ccc(Nc2nnc(Cc3ccncc3)c3ccccc23)cc1 [Vatalanib] + O=C(c1cc(Cc2n[nH]c(=O)c3ccccc23)ccc1F)N1CCN(C(=O)C2CC2)CC1 [Olaparib] (partner 8 µM), the relative viability (NCI-H2347; first compound 0.04 µM) was 0.647, the relative viability (NCI-H2347; first compound 0.1265 µM) was 0.538 and the relative viability (NCI-H2347; first compound 0.4 µM) was 0.643. The relative viability (NCI-H2347; first compound 1.265 µM) was 0.623, the relative viability (NCI-H2347; first compound 4 µM) was 0.597 and the relative viability (LCLC-103H; first compound 0.04 µM) was 0.746. For the same molecule, the relative viability (LCLC-103H; first compound 0.1265 µM) was 0.706, the relative viability (LCLC-103H; first compound 0.4 µM) was 0.749 and the relative viability (LCLC-103H; first compound 1.265 µM) was 0.746. The relative viability (LCLC-103H; first compound 4 µM) was 0.764, the relative viability (NCI-H727; first compound 0.1265 µM) was 0.772 and the relative viability (NCI-H727; first compound 0.4 µM) was 0.761. For the same molecule, the relative viability (NCI-H727; first compound 1.265 µM) was 0.818, the relative viability (NCI-H727; first compound 4 µM) was 0.758 and the relative viability (NCI-H2170; first compound 0.04 µM) was 0.623. The relative viability (NCI-H2170; first compound 0.1265 µM) was 0.656, the relative viability (NCI-H2170; first compound 0.4 µM) was 0.702 and the relative viability (NCI-H2170; first compound 1.265 µM) was 0.512. For the same molecule, the relative viability (NCI-H2170; first compound 4 µM) was 0.556, the relative viability (NCI-H520; first compound 0.04 µM) was 0.392 and the relative viability (NCI-H520; first compound 0.1265 µM) was 0.361. For the same molecule, the relative viability (NCI-H520; first compound 0.4 µM) was 0.37, the relative viability (NCI-H520; first compound 1.265 µM) was 0.283 and the relative viability (NCI-H520; first compound 4 µM) was 0.34. It also gave a relative viability (NCI-H661; first compound 0.04 µM) of 0.769, a relative viability (NCI-H661; first compound 0.1265 µM) of 0.757 and a relative viability (NCI-H661; first compound 0.4 µM) of 0.788. It also gave a relative viability (NCI-H661; first compound 1.265 µM) of 0.73, a relative viability (NCI-H661; first compound 4 µM) of 0.706 and a relative viability (NCI-H650; first compound 0.04 µM) of 0.377. The relative viability (NCI-H650; first compound 0.1265 µM) was 0.378, the relative viability (NCI-H650; first compound 0.4 µM) was 0.414 and the relative viability (NCI-H650; first compound 1.265 µM) was 0.394. For the same molecule, the relative viability (NCI-H650; first compound 4 µM) was 0.361, the relative viability (NCI-H3122; first compound 0.04 µM) was 0.593 and the relative viability (NCI-H3122; first compound 0.1265 µM) was 0.668. The relative viability (NCI-H3122; first compound 0.4 µM) was 0.689, the relative viability (NCI-H3122; first compound 1.265 µM) was 0.592 and the relative viability (NCI-H3122; first compound 4 µM) was 0.598. For the same molecule, the relative viability (RERF-LC-KJ; first compound 0.04 µM) was 0.879, the relative viability (RERF-LC-KJ; first compound 0.1265 µM) was 1.04 and the relative viability (RERF-LC-KJ; first compound 0.4 µM) was 0.913. It also gave a relative viability (RERF-LC-KJ; first compound 1.265 µM) of 0.832, a relative viability (RERF-LC-KJ; first compound 4 µM) of 0.882 and a relative viability (NCI-H1755; first compound 0.04 µM) of 0.773. For the same molecule, the relative viability (NCI-H1755; first compound 0.1265 µM) was 0.847, the relative viability (NCI-H1755; first compound 0.4 µM) was 0.878 and the relative viability (NCI-H1755; first compound 1.265 µM) was 0.901. The relative viability (NCI-H1755; first compound 4 µM) was 0.838, the relative viability (SK-MES-1; first compound 0.04 µM) was 0.608 and the relative viability (SK-MES-1; first compound 0.1265 µM) was 0.71. For the same molecule, the relative viability (SK-MES-1; first compound 0.4 µM) was 0.821, the relative viability (SK-MES-1; first compound 1.265 µM) was 0.61 and the relative viability (SK-MES-1; first compound 4 µM) was 0.627. It also gave a relative viability (NCI-H522; first compound 0.04 µM) of 0.756, a relative viability (NCI-H522; first compound 0.1265 µM) of 0.705 and a relative viability (NCI-H522; first compound 0.4 µM) of 0.746. It also gave a relative viability (NCI-H522; first compound 1.265 µM) of 0.565, a relative viability (NCI-H522; first compound 4 µM) of 0.774 and a relative viability (PC-14; first compound 0.04 µM) of 0.192. The relative viability (PC-14; first compound 0.1265 µM) was 0.195, the relative viability (PC-14; first compound 0.4 µM) was 0.295 and the relative viability (PC-14; first compound 1.265 µM) was 0.276. For the same molecule, the relative viability (PC-14; first compound 4 µM) was 0.309, the relative viability (NCI-H1792; first compound 0.04 µM) was 0.52 and the relative viability (NCI-H1792; first compound 0.1265 µM) was 0.384. The relative viability (NCI-H1792; first compound 0.4 µM) was 0.399, the relative viability (NCI-H1792; first compound 1.265 µM) was 0.344 and the relative viability (NCI-H1792; first compound 4 µM) was 0.413. For the same molecule, the relative viability (NCI-H1915; first compound 0.04 µM) was 0.258, the relative viability (NCI-H1915; first compound 0.1265 µM) was 0.265 and the relative viability (NCI-H1915; first compound 0.4 µM) was 0.275. For the same molecule, the relative viability (NCI-H1915; first compound 1.265 µM) was 0.233, the relative viability (NCI-H1915; first compound 4 µM) was 0.253 and the relative viability (NCI-H1651; first compound 0.04 µM) was 0.19. It also gave a relative viability (NCI-H1651; first compound 0.1265 µM) of 0.184, a relative viability (NCI-H1651; first compound 0.4 µM) of 0.195 and a relative viability (NCI-H1651; first compound 1.265 µM) of 0.202. For the same molecule, the relative viability (NCI-H1651; first compound 4 µM) was 0.179, the relative viability (NCI-H460; first compound 0.04 µM) was 0.4 and the relative viability (NCI-H460; first compound 0.1265 µM) was 0.44. It also gave a relative viability (NCI-H460; first compound 1.265 µM) of 0.494, a relative viability (NCI-H460; first compound 4 µM) of 0.377 and a relative viability (NCI-H596; first compound 0.04 µM) of 0.751. It also gave a relative viability (NCI-H596; first compound 0.1265 µM) of 0.741, a relative viability (NCI-H596; first compound 0.4 µM) of 0.63 and a relative viability (NCI-H596; first compound 1.265 µM) of 0.652. For the same molecule, the relative viability (NCI-H596; first compound 4 µM) was 0.765, the relative viability (NCI-H322M; first compound 0.04 µM) was 0.452 and the relative viability (NCI-H322M; first compound 0.1265 µM) was 0.662. It also gave a relative viability (NCI-H322M; first compound 0.4 µM) of 0.781, a relative viability (NCI-H322M; first compound 4 µM) of 0.778 and a relative viability (LXF-289; first compound 0.04 µM) of 1.04. It also gave a relative viability (LXF-289; first compound 0.1265 µM) of 1, a relative viability (LXF-289; first compound 0.4 µM) of 1.13 and a relative viability (LXF-289; first compound 1.265 µM) of 0.975. The relative viability (LXF-289; first compound 4 µM) was 1.03, the relative viability (SW 900; first compound 0.04 µM) was 0.759 and the relative viability (SW 900; first compound 0.1265 µM) was 0.674. It also gave a relative viability (SW 900; first compound 0.4 µM) of 0.997, a relative viability (SW 900; first compound 1.265 µM) of 0.853 and a relative viability (SW 900; first compound 4 µM) of 0.93. It also gave a relative viability (NCI-H1355; first compound 0.04 µM) of 0.732, a relative viability (NCI-H1355; first compound 0.1265 µM) of 0.79 and a relative viability (NCI-H1355; first compound 0.4 µM) of 0.809. It also gave a relative viability (NCI-H1355; first compound 1.265 µM) of 0.699, a relative viability (NCI-H1355; first compound 4 µM) of 0.706 and a relative viability (NCI-H441; first compound 0.04 µM) of 0.546. It also gave a relative viability (NCI-H441; first compound 0.1265 µM) of 0.62, a relative viability (NCI-H441; first compound 0.4 µM) of 0.51 and a relative viability (NCI-H441; first compound 1.265 µM) of 0.561. The relative viability (NCI-H441; first compound 4 µM) was 0.553.

Reference: the supplement of paper PMC10307832
